Experiments:
JNK = experiment: Western blot of MAPK pathway, phosphorylated JNK; assay type: cell-based, mouse; conditions: 10 μg/ml co-treated with 100 ng/ml RANKL, 0-60 minutes
Description: (§1) The effect of the compound of formula I on the protein expression of osteoclast MAPKs pathways induced by receptor activator of nuclear factor κB ligand was studied, experiments were performed by using the Western blot method; RAW 264.7 cells were rinsed in ice-cold PBS, cell lysis buffer was added, the components of the buffer solution included: 10 mM 4-(2-hydroxyethyl)-1-piperazineethanesulfonic acid (HEPES), 1.5 mM MgCl2, 0.5 mM dithiothreitol (DTT), 0.5 μg/ml leupeptin and 6.4% Nonidet P-40, reacted on ice for 15 minutes. The cells were scraped off with a spatula, collected into a 1.5 ml centrifuge tube, the cells were thoroughly broken by using a shaker; centrifuged at 12,000 rpm, 4° C. for 10 minutes; supernatant was added into a new 1.5 ml centrifuge tube; boiled with IX sodiumdodecyl sulfate (SDS) sample buffer, followed by electrophoresis using 10 to 12% SDS-PAGE. […] The transfer membrane was rinsed again and the membrane loaded with chemical luminescence reagent ECL was allowed to react with a photosensitive sheet in a darkroom for a suitable period of time, the photosensitive sheet then reacted with the developer. After the photosensitive sheet was exposed to light a band-shaped antibody-binding proteins was observed, quantified by the density of the bands. […]

c-Fos = experiment: Western blot of MAPK downstream protein c-Fos; assay type: cell-based, mouse; conditions: 10 μg/ml co-treated with 100 ng/ml RANKL, 48 hours
Description: as §1

CNC(=O)N[C@]1(C)CCC[C@@]2(C)C3CC[C@@]4(C)C[C@]3(CCC21)CC4=O (single isomer, unassigned; ent-16) [compound of formula I, ent-16-oxobeyeran-19-N-methylureido]
expression of phosphorylated JNK (JNK): decreased | c-Fos protein expression (c-Fos): significantly reduced

— US20180042874A1, “METHOD FOR TREATING OSTEOPOROSIS” (China Medical University, priority 2016, published 2018)
